For test [1], the target named is G protein-coupled receptor kinase 5 (Homo sapiens, UniProt P34947). Briefly: Selectivity interaction (Kinase panel (Z-LYTE Assay)) EUB0001632a GRK5. The note with it: at 10 µM.
Test [2] addresses Mitogen-activated protein kinase kinase kinase 8 (Homo sapiens, UniProt P41279). In words: Selectivity interaction (Kinase panel (Z-LYTE Assay)) EUB0001632a MAP3K8. The note with it: at 10 µM.
Test [3] addresses Tyrosine-protein kinase JAK1 (Homo sapiens, UniProt P23458). In words: Selectivity interaction (Kinase panel (Z-LYTE Assay)) EUB0001632a JAK1. The note with it: at 10 µM.
The target of test [4] is Wee1-like protein kinase (Homo sapiens) (UniProt P30291). Briefly: Selectivity interaction (KinomeScan (DiscoverX)) EUB0000607a WEE1. To be noted: at 10 µM.
Sequence of Wee1-like protein kinase (Homo sapiens) (P30291 whole entry, looked up): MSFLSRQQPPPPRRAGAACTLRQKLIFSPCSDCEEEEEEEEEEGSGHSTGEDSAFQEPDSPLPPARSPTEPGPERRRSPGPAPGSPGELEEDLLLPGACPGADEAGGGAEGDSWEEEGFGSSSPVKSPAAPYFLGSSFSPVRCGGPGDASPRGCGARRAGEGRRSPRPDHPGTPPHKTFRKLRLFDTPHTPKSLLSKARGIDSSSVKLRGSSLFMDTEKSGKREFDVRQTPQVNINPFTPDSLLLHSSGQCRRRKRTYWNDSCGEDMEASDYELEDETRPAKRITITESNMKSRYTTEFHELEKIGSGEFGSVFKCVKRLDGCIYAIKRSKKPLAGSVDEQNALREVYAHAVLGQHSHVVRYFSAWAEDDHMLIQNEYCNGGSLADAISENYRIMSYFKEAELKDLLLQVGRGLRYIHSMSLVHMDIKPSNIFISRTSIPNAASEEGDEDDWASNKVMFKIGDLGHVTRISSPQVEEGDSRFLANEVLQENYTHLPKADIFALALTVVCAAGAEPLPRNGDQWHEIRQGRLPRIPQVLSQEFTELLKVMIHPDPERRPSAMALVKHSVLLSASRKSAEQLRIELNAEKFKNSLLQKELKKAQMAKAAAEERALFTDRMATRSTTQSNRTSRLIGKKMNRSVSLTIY
Test [5] deals with Cyclin-dependent kinase 16 (Homo sapiens) (UniProt Q00536). To be noted: at 10 µM.
Test [6] concerns the target RAC-gamma serine/threonine-protein kinase (Homo sapiens, UniProt Q9Y243). In words: Selectivity interaction (KinomeScan (DiscoverX)) EUB0000666a AKT3. To be noted: at 10 µM.
In test [7] the target is Protein arginine N-methyltransferase 1 (Homo sapiens, UniProt Q99873). Briefly: Selectivity interaction (Methyltransferase screen (Scintillation proximity assays)) EUB0000255b PRMT1.
Sequence of Protein arginine N-methyltransferase 1 (Q99873 whole entry, looked up): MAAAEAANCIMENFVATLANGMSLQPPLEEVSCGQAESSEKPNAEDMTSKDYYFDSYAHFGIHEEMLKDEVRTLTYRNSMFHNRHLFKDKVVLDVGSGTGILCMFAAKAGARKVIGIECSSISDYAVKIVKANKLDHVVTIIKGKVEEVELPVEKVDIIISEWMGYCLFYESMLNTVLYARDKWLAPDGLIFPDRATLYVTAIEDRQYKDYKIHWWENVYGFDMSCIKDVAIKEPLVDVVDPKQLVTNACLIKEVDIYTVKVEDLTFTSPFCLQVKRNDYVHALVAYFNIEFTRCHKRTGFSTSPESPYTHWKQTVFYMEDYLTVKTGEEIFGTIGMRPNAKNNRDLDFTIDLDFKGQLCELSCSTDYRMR
Test [8] has as its target Serine/threonine-protein kinase 32A (Homo sapiens) (UniProt Q8WU08). Briefly: Selectivity interaction (KinomeScan (DiscoverX)) EUB0001619a STK32A. To be noted: at 1 µM.
The target in test [9] is Protein kinase C gamma type (Homo sapiens) (UniProt P05129). Briefly: Selectivity interaction (Kinase screening (Upstate/Millipore)) EUB0000604a PRKCG.
Test [10] addresses Proto-oncogene tyrosine-protein kinase ROS (Homo sapiens) (UniProt P08922). In words: Selectivity interaction (KinomeScan (DiscoverX)) EUB0000695a ROS1. To be noted: at 100 nM.
Test [11] deals with Receptor-interacting serine/threonine-protein kinase 2 (Homo sapiens, UniProt O43353). In words: Selectivity interaction (ProQinase) EUB0000171b RIPK2.
Sequence of Receptor-interacting serine/threonine-protein kinase 2 (O43353 whole entry): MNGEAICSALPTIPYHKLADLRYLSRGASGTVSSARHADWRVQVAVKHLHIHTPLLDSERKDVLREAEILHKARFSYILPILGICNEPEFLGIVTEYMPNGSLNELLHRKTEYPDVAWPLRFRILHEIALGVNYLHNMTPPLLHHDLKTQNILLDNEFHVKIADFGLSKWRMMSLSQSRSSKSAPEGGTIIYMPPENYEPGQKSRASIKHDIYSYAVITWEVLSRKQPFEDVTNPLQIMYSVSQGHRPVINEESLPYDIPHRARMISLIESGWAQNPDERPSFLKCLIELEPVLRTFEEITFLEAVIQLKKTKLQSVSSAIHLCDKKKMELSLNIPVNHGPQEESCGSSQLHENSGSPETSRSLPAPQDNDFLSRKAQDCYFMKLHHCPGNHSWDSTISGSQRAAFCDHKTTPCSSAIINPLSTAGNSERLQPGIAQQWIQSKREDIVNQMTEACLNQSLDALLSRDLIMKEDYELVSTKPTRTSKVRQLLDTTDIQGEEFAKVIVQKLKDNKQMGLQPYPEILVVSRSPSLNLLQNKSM
Test [12] concerns the target Bromodomain-containing protein 2 (Homo sapiens) (UniProt P25440). In words: Selectivity interaction (Bromodomain panel (DSF asssay)) EUB0000270b BRD2.
Test [13] deals with T1, Muscarinic acetylcholine receptor M1 (Homo sapiens) (UniProt P11229).
T1 sequence (whole entry): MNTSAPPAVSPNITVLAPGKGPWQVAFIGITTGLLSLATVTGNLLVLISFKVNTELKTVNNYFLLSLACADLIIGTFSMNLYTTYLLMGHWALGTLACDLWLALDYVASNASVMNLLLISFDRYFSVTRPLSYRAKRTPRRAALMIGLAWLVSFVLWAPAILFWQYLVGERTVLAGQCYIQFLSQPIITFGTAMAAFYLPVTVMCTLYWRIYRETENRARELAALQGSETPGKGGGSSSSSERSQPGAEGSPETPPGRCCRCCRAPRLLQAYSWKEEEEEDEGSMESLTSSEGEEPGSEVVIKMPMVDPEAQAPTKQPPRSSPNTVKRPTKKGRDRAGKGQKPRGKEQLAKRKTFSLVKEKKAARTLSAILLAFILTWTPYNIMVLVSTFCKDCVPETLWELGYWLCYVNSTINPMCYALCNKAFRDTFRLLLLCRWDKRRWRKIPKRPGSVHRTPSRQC
Briefly: Selectivity interaction (Panel of kinases, GPCRs, ion channels and transporters (enzymatic assay)) EUB0000223bCl CHRM1.

The target of test [14] is AP2-associated protein kinase 1 (Homo sapiens, UniProt Q2M2I8). Briefly: Selectivity interaction (KinomeScan (DiscoverX)) EUB0000092b AAK1. The note with it: at 10 µM.
Test [15] has as its target Dual specificity protein kinase CLK2 (Homo sapiens, UniProt P49760). Briefly: Selectivity interaction (KinomeScan (DiscoverX)) EUB0000092b CLK2. To be noted: at 10 µM.
The target of test [16] is T2, Activin receptor type-1B (Homo sapiens) (UniProt P36896).
T2 sequence (whole entry): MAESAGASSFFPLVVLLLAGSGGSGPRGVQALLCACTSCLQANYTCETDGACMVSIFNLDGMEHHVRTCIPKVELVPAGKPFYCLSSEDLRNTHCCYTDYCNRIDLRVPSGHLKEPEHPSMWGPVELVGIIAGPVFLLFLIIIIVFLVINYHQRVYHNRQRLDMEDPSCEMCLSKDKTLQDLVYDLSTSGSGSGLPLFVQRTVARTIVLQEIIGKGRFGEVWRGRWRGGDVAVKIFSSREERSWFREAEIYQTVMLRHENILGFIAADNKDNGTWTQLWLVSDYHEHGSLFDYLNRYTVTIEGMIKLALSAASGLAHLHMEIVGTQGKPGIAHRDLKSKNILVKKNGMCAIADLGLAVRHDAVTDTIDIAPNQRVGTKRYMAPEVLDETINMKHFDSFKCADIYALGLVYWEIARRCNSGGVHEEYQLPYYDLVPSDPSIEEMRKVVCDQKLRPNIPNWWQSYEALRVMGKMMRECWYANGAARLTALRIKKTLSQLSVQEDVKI
Briefly: Selectivity interaction (KinomeScan (DiscoverX)) EUB0000618a ACVR1B. The note with it: at 10 µM.

Sequence of Proto-oncogene tyrosine-protein kinase ROS (Homo sapiens) (P08922 whole entry): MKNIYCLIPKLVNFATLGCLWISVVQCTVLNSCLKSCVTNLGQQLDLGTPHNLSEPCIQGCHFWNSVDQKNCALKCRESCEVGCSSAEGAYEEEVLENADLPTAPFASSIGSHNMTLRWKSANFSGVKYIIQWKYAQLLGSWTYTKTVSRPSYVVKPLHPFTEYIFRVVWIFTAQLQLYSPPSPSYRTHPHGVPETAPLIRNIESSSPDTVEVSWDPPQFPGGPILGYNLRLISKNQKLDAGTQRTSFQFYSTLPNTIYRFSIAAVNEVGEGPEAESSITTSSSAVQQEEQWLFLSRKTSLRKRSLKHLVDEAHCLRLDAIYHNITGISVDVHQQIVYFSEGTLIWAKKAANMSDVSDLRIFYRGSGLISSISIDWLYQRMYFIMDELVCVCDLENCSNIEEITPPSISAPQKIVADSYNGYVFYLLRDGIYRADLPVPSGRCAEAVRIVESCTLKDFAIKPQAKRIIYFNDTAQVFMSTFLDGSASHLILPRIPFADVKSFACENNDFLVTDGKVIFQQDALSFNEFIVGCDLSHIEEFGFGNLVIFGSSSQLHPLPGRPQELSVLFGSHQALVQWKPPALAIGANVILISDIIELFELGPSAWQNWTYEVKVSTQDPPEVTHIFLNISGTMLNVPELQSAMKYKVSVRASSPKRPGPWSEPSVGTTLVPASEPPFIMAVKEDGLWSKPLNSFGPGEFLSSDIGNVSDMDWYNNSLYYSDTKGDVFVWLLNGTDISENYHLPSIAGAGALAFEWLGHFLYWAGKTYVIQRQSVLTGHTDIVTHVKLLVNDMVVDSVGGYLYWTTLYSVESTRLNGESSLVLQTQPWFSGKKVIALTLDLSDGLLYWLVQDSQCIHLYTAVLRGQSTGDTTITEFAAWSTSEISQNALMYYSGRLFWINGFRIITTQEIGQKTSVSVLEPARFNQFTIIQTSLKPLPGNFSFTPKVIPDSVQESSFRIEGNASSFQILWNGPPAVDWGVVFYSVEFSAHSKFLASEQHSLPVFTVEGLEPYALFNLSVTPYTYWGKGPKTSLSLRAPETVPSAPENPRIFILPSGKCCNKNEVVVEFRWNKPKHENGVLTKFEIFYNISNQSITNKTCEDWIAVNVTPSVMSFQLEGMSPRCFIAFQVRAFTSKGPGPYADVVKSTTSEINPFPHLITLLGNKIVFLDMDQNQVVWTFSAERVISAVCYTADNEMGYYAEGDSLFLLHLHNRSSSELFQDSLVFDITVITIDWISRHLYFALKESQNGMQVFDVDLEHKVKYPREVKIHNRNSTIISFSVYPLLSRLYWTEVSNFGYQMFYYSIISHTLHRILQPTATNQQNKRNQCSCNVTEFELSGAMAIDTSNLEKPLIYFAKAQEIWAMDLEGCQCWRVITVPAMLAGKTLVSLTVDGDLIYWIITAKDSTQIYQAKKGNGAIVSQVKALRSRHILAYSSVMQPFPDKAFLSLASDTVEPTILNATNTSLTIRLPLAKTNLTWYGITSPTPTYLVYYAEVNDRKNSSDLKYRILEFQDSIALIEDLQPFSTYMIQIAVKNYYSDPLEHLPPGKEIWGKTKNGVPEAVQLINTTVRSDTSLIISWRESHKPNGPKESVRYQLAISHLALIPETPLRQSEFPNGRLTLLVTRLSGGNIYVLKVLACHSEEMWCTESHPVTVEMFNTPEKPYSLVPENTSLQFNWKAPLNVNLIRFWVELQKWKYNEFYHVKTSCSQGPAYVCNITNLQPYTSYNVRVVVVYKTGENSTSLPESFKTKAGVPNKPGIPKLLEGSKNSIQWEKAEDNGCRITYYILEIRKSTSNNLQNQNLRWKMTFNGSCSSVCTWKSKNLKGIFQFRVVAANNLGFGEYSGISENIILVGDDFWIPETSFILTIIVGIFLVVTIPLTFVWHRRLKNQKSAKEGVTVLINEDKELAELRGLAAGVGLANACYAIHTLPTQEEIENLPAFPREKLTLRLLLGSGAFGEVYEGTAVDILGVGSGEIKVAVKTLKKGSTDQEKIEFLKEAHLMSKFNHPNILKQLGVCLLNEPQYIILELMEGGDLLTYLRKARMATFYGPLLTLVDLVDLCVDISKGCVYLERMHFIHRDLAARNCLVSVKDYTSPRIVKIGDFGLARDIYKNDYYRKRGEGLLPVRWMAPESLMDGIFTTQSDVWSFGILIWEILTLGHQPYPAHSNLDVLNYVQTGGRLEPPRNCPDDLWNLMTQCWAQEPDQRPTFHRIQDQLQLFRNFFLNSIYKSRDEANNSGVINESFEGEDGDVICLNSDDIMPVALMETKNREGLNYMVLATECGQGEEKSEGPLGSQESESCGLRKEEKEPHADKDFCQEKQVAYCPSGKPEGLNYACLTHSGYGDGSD
Sequence of Dual specificity protein kinase CLK2 (P49760 whole entry, looked up): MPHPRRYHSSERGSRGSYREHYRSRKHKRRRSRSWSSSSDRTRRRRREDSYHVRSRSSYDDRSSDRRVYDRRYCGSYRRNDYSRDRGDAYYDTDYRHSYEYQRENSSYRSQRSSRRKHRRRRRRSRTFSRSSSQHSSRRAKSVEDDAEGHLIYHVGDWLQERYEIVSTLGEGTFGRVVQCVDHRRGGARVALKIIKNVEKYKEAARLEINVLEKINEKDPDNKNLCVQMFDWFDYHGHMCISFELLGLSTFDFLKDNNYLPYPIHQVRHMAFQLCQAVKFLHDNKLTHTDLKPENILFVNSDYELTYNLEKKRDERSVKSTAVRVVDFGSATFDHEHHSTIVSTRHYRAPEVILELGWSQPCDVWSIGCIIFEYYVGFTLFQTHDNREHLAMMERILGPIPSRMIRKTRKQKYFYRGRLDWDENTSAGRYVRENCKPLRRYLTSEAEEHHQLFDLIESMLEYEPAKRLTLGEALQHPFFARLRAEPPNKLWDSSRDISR
Sequence of Serine/threonine-protein kinase 32A (Homo sapiens) (Q8WU08 whole entry): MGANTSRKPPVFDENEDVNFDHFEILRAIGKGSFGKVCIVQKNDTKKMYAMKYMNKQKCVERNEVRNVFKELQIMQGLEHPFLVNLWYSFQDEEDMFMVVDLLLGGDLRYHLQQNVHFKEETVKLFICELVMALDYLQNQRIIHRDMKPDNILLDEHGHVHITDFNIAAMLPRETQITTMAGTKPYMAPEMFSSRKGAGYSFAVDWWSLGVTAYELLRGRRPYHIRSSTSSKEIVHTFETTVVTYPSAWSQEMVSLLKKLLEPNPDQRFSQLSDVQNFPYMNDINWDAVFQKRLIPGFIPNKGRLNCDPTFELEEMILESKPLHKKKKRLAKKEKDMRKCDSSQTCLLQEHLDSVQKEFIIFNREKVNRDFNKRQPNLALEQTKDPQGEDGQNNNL

Take `Cn1cc(-n2cnc3c(NCc4nc5cc(Cl)c(Cl)cc5[nH]4)nc(N4CCOCC4)nc32)cn1`: the % of control in test [1] was -0.027%; in [2], 4.18%; in [3], -3.66%.

As for `CNC(=O)Nc1ccc(-c2nc(N3CC4CCC(C3)O4)c3cnn(C4CCC5(CC4)OCCO5)c3n2)cc1`, the % of control in test [4] is 79%.

For `Cc1cc([C@@H](C)Nc2ccccc2C(=O)O)c2nc(N3CCOCC3)cc(=O)n2c1` [AZD-6482], the % of control in test [5] turned out to be 100%.

In the case of `O=C(NOC[C@H](O)CO)c1ccc(F)c(F)c1Nc1ccc(I)cc1F`, in test [6], the % of control came to 89%.

On to `COCCN1CCC(c2cc(CN(C)C(=O)c3cccc(Oc4ccccc4)c3)ccn2)CC1`, for which the results for the % activity in test [7] (at 1 µM) and in test [7] (at 10 µM) were 82% and above 90%, respectively.

With `N#Cc1cccc(-c2c[nH]c3ncnc(N4CCOCC4)c23)c1`, the % of control in [8] is 100%.

In test [9], `Cc1cnc(Nc2ccc(F)cc2Cl)nc1-c1c[nH]c(C(=O)N[C@H](CO)c2cccc(Cl)c2)c1` came in with a % of inhibition of 11%.

For `Cc1cc(F)c(C(=O)Nc2cccc(-c3nncn3C(C)C)n2)cc1-n1cnc(C2CC2)c1`, the % of control in test [10] worked out at 79%.

For the molecule `C=CC(=O)Nc1cccc(C(=O)Nc2ccc(Nc3cc(-c4[nH]c(SC)nc4C)ccn3)cc2)c1`, the % of control in [11] (at 1 µM) was found to be 77%; in test [11] (at 5 µM) it was 43%.

In [12], `Cc1cc(CN)cc(C)c1-c1ncn(C)c1-c1cncn1C` had a dTM of -1.94 K.

In [13], `COc1cc(C(=O)N2CC[C@@H](O)[C@@H](N)C2)cc2nc(-c3cc4ccccc4n3CC3CC3)n(C)c12` had a pXC50 of 4.9 M.

On to `CCC(=O)N1CCN(c2ccc(-n3c(=O)ccc4cnc5ccc(-c6cnc7ccccc7c6)cc5c43)cc2C(F)(F)F)CC1`, for which the % of control in test [14] was 75%; in test [15], 65%.

Regarding `O[C@H]1CC[C@H](Nc2ncc3nc(Nc4c(F)cc(F)cc4F)n([C@H]4CCOC4)c3n2)CC1`, in test [16], the % of control was 99%.

Values taken from ChEMBL document CHEMBL5465560, “Selectivity Literature for EUbOPEN Chemogenomic Library” (2024).
